According to PMC9452538, “The antimicrobial peptide LI14 combats multidrug-resistant bacterial infections” (Communications Biology, 2022):
≈ marks a conversion by molar mass, not a printed value. Like-named read-outs stand apart in the source and are kept apart here. Peptide text beside a SMILES is read from it.

Legend:
[1] = system: S. enteritidis ATCC 13076; assay: microbe, parasite or virus in culture; format: cell-based; settings: ATCC 13076
In short: (§1)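 Bacteria are grown to exponential phase, diluted 1:1000 in MHB, then combined at 1.5 × 10^6 CFUs/mL with different peptide concentrations. MICs follow standard CLSI2021 broth micro-dilution.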

[2] = system: E. faecalis A4 (VRE, VanA); assay: microbe, parasite or virus in culture; format: cell-based; settings: A4 (VRE, VanA)
In short: as §1

[3] = system: E. faecalis 1F-1; assay: microbe, parasite or virus in culture; format: cell-based; settings: 1F-1
In short: as §1

[4] = system: MRSA 1518; assay: microbe, parasite or virus in culture; format: cell-based, Staphylococcus aureus; settings: 1518
In short: as §1

[5] = system: A. baumannii ATCC 19609; assay: microbe, parasite or virus in culture; format: cell-based, Acinetobacter baumannii; settings: ATCC 19609
In short: as §1

[6] = system: A. baumannii C222 (tet(X6)); assay: microbe, parasite or virus in culture; format: cell-based, Acinetobacter baumannii; settings: C222 (tet(X6))
In short: as §1

[7] = system: E. coli B2; format: cell-based, Escherichia coli; settings: E. coli B2
Description: (§2) MRSA T144 and E. coli B2 in the exponential growth phase were incubated with LI14 peptide supplemented with 10 mM Na^+, K^+, Mg^2+, 10% Dulbecco’s modified Eagle medium (DMEM), and 10% fetal bovine serum (FBS) for 16–18 h. The stability of LI14 was evaluated by the change of its antibacterial activity under different conditions.
(§3) LI14 were preincubated for 1 h at various temperatures (40–121 °C), pH (2–12), and proteases (pepsin, trypsin, and papain, final concentration 1 mg/mL). […] Following the incubation with the proteases, the leftover protease was precipitated with acetonitrile and removed by centrifugation at 3000 × g, followed by a MIC test.
(§4) Supplementary Table 4 Thermal, pH, salts and protease stability of AMPs against
(§5) MRSA T144 and E. coli B2 (MIC, μg/mL).
(§6) Treatment MRSA T144 E. coli B2

[8] = system: E. coli B2 (blaNDM-5 + mcr-1); assay: microbe, parasite or virus in culture; format: cell-based, Escherichia coli; settings: B2 (blaNDM-5 + mcr-1)
In short: as §1

[9] = system: E. coli ATCC 25922; assay: microbe, parasite or virus in culture; format: cell-based, Escherichia coli; settings: ATCC 25922
In short: as §1

[10] = system: P. aeruginosa PA14; assay: microbe, parasite or virus in culture; format: cell-based, Pseudomonas aeruginosa; settings: PA14
In short: as §1

[11] = system: CD-1 mice; format: in vivo; settings: 10 mg/kg i.p. daily for 6 days, n = 4
Description: LI14 (10 mg/kg, body weight) was intra-peritoneally injected into CD-1 mice (n = 4 biologically independent animals per group) every day for 6 days[64]. Mice were weighed daily and the behaviors of the mice were inspected for one week. Blood from mice was collected on the seventh day for whole-blood cell analysis and kidney chemistry profile. At the same time, the heart, liver, spleen, lung, and kidney of mice were collected for H.E. staining.
Supplementary Fig. 5 In vivo toxicity assessment of LI14 peptide.
(a) Scheme of the LI14 peptide toxicity study in mice. CD-1 female mice (n = 4 biologically independent animals per group) were intraperitoneally administered with LI14 (10 mg/kg) daily […]. (b-e) Body weight (b), whole-blood cell profiles (c), serum biochemical […]
(1 picture or pasted object on this page, not shown here)

[12] = system: S. aureus ATCC 29213; assay: Resistance development study, serial passages; format: cell-based, Staphylococcus aureus; settings: 80 serial passages at sub-inhibitory concentration (0.5-fold MIC)
Description: (§7) The ability of LI14 peptide to induce resistance was studied as previously described. Resistance to the therapeutically important drugs rifampicin and ciprofloxacin was measured using S. aureus ATCC 29213 and E. coli ATCC 25922 as test strains. The middle and final MICs were monitored after eighty such serial passages exposed to the tested medicines (0.5-fold MIC), and the fold change in MIC increase was recorded.

[13] = system: E. coli B2 persisters; assay: Bactericidal activity against persisters; format: cell-based, Escherichia coli
Description: Briefly, the bacteria suspensions after washing were exposed to 50-fold MIC concentrations of vancomycin and tigecycline, respectively, and co-incubation for 4 h to obtain persister cells. […] Subsequently, the primary CFUs/mL were calculated.

[14] = system: E. coli ATCC 25922; assay: Resistance development study, serial passages; format: cell-based, Escherichia coli; settings: 80 serial passages at sub-inhibitory concentration (0.5-fold MIC)
Description: as §7

[15] = system: MRSA T144; format: cell-based, Staphylococcus aureus; settings: MRSA T144
Description: as §2, §3, §4, §5, §6

[16] = system: P. cibarius HNCF44W (blaNDM-1 + tet(X6)); assay: organism not typed; format: cell-based
In short: as §1

[17] = system: S. aureus ATCC 29213; assay: microbe, parasite or virus in culture; format: cell-based, Staphylococcus aureus; settings: ATCC 29213
In short: as §1

[18] = system: MRSA T144; assay: microbe, parasite or virus in culture; format: cell-based, Staphylococcus aureus; settings: T144
In short: as §1

[19] = peptide preincubated 1 h at 40℃
[20] = peptide preincubated 1 h at 60℃
[21] = peptide preincubated 1 h at 80℃
[22] = peptide preincubated 1 h at pH 8, readjusted to pH 7.2
[23] = peptide preincubated 1 h at pH 12, readjusted to pH 7.2

CC[C@H](C)[C@H](NC(=O)[C@H](CCCNC(=N)N)NC(=O)[C@H](CS)NC(=O)[C@H](CC(C)C)NC(=O)[C@H](CCCCN)NC(=O)[C@H](CCCCN)NC(=O)[C@H](CC(C)C)NC(=O)[C@@H](NC(=O)[C@H](CCCNC(=N)N)NC(=O)[C@H](CS)NC(=O)[C@H](CC(C)C)NC(=O)[C@H](CCCCN)NC(=O)[C@H](CCCCN)NC(=O)[C@@H](N)CC(C)C)[C@@H](C)CC)C(N)=O [LI14] (H-LKKLCRILKKLCRI-NH2)
MIC [1]: 8 µg/mL (≈ 4.63 µM)
MIC [2]: 8 µg/mL (≈ 4.63 µM)
MIC [3]: 64 µg/mL (≈ 37.1 µM)
MIC [4]: 64 µg/mL (≈ 37.1 µM)
MIC [5]: 8 µg/mL (≈ 4.63 µM)
MIC [6]: 16 µg/mL (≈ 9.26 µM)
MIC ([7]; Control): 4 µg/mL (≈ 2.32 µM)
MIC ([7]; KCl 10 mM): 4 µg/mL (≈ 2.32 µM)
MIC ([7]; NaCl 10 mM): 4 µg/mL (≈ 2.32 µM)
MIC ([7]; Serum (10%), fetal bovine serum): 4 µg/mL (≈ 2.32 µM)
MIC [7, 19]: 4 µg/mL (≈ 2.32 µM)
MIC [7, 20]: 4 µg/mL (≈ 2.32 µM)
MIC [7, 21]: 4 µg/mL (≈ 2.32 µM)
MIC ([7]; peptide preincubated 1 h at 121℃): 4 µg/mL (≈ 2.32 µM)
MIC ([7]; peptide preincubated 1 h at pH 2, readjusted to pH 7.2): 4 µg/mL (≈ 2.32 µM)
MIC ([7]; peptide preincubated 1 h at pH 4, readjusted to pH 7.2): 4 µg/mL (≈ 2.32 µM)
MIC ([7]; peptide preincubated 1 h at pH 6, readjusted to pH 7.2): 4 µg/mL (≈ 2.32 µM)
MIC [7, 22]: 4 µg/mL (≈ 2.32 µM)
MIC ([7]; peptide preincubated 1 h at pH 10, readjusted to pH 7.2): 4 µg/mL (≈ 2.32 µM)
MIC [7, 23]: 4 µg/mL (≈ 2.32 µM)
MIC [8]: 4 µg/mL
MIC [9]: 8 µg/mL (≈ 4.63 µM)
MIC [10]: 16 µg/mL (≈ 9.26 µM)
Behavior and body weight [11]: did not observe murine behavior changes or body weight loss
H.E. staining of heart, liver, spleen, lung, kidney [11]: no significant difference in histological morphology
Whole-blood cell profiles and serum biochemical index [11]: no significant difference compared with the control group
Increase in MIC after serial passages [12]: 8 fold
Removal rate of persisters ([13]; 128 μg/mL of LI14): more than 99%
Clearance rate against persisters ([13]; within 2 h): above 99%
Increase in MIC after serial passages [14]: 8 fold
MIC ([15]; Control): 4 µg/mL (≈ 2.32 µM)
MIC [15, 19]: 4 µg/mL (≈ 2.32 µM)
MIC [15, 20]: 4 µg/mL (≈ 2.32 µM)
MIC [15, 21]: 4 µg/mL (≈ 2.32 µM)
MIC [15, 22]: 4 µg/mL (≈ 2.32 µM)
MIC [15, 23]: 4 µg/mL (≈ 2.32 µM)
MIC ([15]; peptide preincubated 1 h with Pepsin 1 mg/mL): 4 µg/mL (≈ 2.32 µM)
MIC [16]: 8 µg/mL (≈ 4.63 µM)
MIC [17]: 8 µg/mL (≈ 4.63 µM)
MIC [18]: 4 µg/mL (≈ 2.32 µM)
